Reference: patent US7556928B2, “Method of screening a population of cells” (One Cell Systems, Inc., priority 2001, dated 2009)

Legend:
CRL-8018 hybridoma cells [1] = experiment: In-vitro induced IgG isotype switching by sequential sublining and mIgG ELISA; type: cell-based, mouse; settings: retinoic acid 100 nM
Procedure: Induction of Class-Switching Using CRL-8018 cell line, we investigated and evaluated methods of increasing the number class-switching events in-vitro. Cells were plated in 75 cm^2 flasks or in 12-well plates at 1×10^4/ml and incubated for 7 days in complete growth medium supplemented with:
Determination of In-vitro Induced Switching Rate Using Sequential Sublining CRL-8018 cells were resuspended in growth medium supplemented with mitogen(s)/growth factors as described above and plated out in ten 96-well plates at a density of 1,000 cells/well. Cells were cultured at 37° C., 5% CO2 in a humid incubator for 5 days. Cell culture supernates were collected and an isotype-specific ELISA performed. Briefly, 96-well flexible assay plates, previously coated with 10μg/plate of purified goat anti-mouse IgG (Jackson Immunochemicals) in 20 mM NaHCO3 (Sigma-Aldrich), 50 μl/well, were incubated overnight at 4° C. and then washed 3 times in Dulbecco's phosphate buffered saline without calcium and magnesium/0.2% Tween 20 (DPBS-/Tween) (Sigma-Aldrich). Non-specific protein binding sites were blocked using PBS+1% BSA, 200 μl/well for 2 hr at room temperature (RT).
100 μl of each of the culture supemates were harvested and incubated in the anti-IgG coated plates for 2 hr at RT. The assay plates were washed three times in DPBS-/Tween, and 50 μl of HRP conjugated goat anti-mouse IgG (Jackson Immunochemicals) diluted 1:100 in PBS/Tween were applied to each well and incubated at RT for 1 hr. Plates were washed again and developed using 100 μl of TMB substrate solution (Sigma-Aldrich). The reaction was halted with 0.5M H2SO4 (Sigma-Aldrich) and plates were read at […] on an ELx800 ELISA plate reader (Bio-TEK Instruments, Inc.). Five rounds of the above procedure were performed to determine the switching rate.
11. Detection of In-vitro Induced IgG Isotype Switching Rate Among CRL-8018 Hybridoma Cells Using Sequennal Sublining Experiments were performed with CRL-8018 hybridoma cell line as described in Materials and Methods. […] Sequental sublining was performed as described in Materials and Methods. 1×10^6 cells were resuspended in 200 ml of growth medium supplemented with 100 nM of retinoic acid (5×10^3/ml) and plated out in ten 96-well plates at a density of 1,000 cells/well (0.2 ml/well). After 5 days of incubation at 37° C. and 5% CO2, mIgG isotype specific ELISA was performed with cell culture supemates. Cells from two positive wells were plated out in 96-well plates at a density of 100 cells/well (25 plates). Five rounds of the above procedure were performed: 1,000 cells/well, 100 cells/well, 10 cells/well, and 1 cell/well. […] About two months, 110 plates and 10,560 supemates for mIgG isotype specific ELISA were required for the assay.

CRL-8018 hybridoma cells [2] = experiment: Microdrop isotype capture and isolation assay (FACS); type: cell-based, mouse; settings: 100 nM
Procedure: Determination of Spontaneous and In-vitro Stimulated Switching Rate Using the Microdrop Isotype Capture and Isolation Assay Due to the low rate of isotype switching, analysis of large cell populations is necessary. —We, therefore, used a modified microdrop encapsulation protocol to isolate spontaneous or in-vitro induced rare IgG isotype switch variants among IgM secreting hybridoma cells. If the IgG concentration in supernatants was <0.1 μg/ml, we initially encapsulated multiple cells, followed by single cell encapsulation. In all cases, if,after in-vitro induction, the concentration of secreted IgG in supernatants was >0.1 μg/ml, one round of single cell encapsulation was sufficient for discriminating and sorting a small sub-population of positive cells.
Two aliquots of 500 μl melted CelBioGel-3™ were vortexed with 25 μl of 10% Pluronic F-68 solution (Sigma-Aldrich), equilibrated at 37° C. for 3 min and then each was mixed with at least 2×10^6 hybridoma cells in […] of growth medium. These mixtures were added to 15 ml prewarmed CelMix™, covered and shaken vigorously 10 times to form an emulsion. Then the vial was attached to CellSys100™ Microdrop Maker (One Cell Systems, Inc) and the emulsion was mixed at 1800 rpm for 1 min at RT, then 1800 rpm for 1 min at 0° C., and subsequently 1000 rpm for 6 min at 0° C. Microdrops were washed three times in DPBS to remove oil and then incubated in 7 ml DPBS containing streptavidin (Sigma-Aldrich) at a final concentration of 10 μg/ml for 10 min at RT.
After incubating with streptavidin, microdrops were washed three times by resuspending in 15 ml DPBS- followed by centrifugation at 1500 rpm for 5 min and then incubated with 10 μg/ml of biotinylated goat anti-mouse IgG for 10 min. Microdrops were again washed three times in DPBS- (as above) and resuspended in 20 ml of prewarmed growth medium and incubated at 37° C. for 2 hr for antibody secretion by the encapsulated cells. After incubation, microdrops were pelleted by centrifugation at 1500 rpm for 5 min, resuspended in cold DPBS- and labelled with 10 μg/ml of FITC-conjugated goat anti-mouse IgG-specific antibody (Jackson Immunochemicals). microdrops were washed twice in HBSS, resuspended in 2 ml of growth medium and sorted using a Coulter EPICS Elite; gating was set to sort only highly positive microdrops, based on controls.
To determine spontaneous and in-vitro induced switching rate using the microdrop isotype capture and isolation assay, CRL-8018 hybridoma cells were plated out in two 75 cm^2 flasks or two 12-well plates (2 ml/well) at a density of 1×10^4 cells/ml in complete growth medium alone or in the presence of stimulators as described above. Cells were cultured at 37° C., 5% CO2 in a humid incubator for 5 days. Cell culture supemates were harvested and IgM and/or IgG production was tested using IsoStip™ or an ELISA-based mouse Isotyping kit (Zymed, Inc.). All cells from 75 cm2 flasks and from wells positive for IgG production were pooled, resuspended in 100-200 μl of growth medium and encapsulated in microdrops. The first round of isotype capture and isolation enrichment with multiple occupied microdrops was then performed, as described above. After sorted cells were propagated in culture for 5 days, the second round of the assay was performed usingmicrodrops occupied by single cells. After isolation by FACS, IgG secretors were plated out in 96-well plates, 1 cell/well. The number of recovered clones was estimated using supernatant ELISA after incubating plates at 37° C. in 5% C02 for 14 days.
Fluorescence Activated Cell Sorting Cell sorting was performed using an EPICS Elite™ Coulter Corp. with a 100 μm flow nozzle. FITC-labelled detection regents were excited by the 488 nm spectral line of an argon laser. Green (FITC) fluorescence was collected using a 525 nm, long pass band filter. For statistical analysis, EPICS Elite 4.02 software was used. […]

[3] = after first round with 25 × 10^6 cells
[4] = second round, highest-fluorescence sub-population

CC1=C(/C=C/C(C)=C/C=C/C(C)=C/C(=O)O)C(C)(C)CCC1 [retinoic acid]
rate of isotype switching (CRL-8018 hybridoma cells [1]): ~0.0006%
% positive wells (CRL-8018 hybridoma cells [1]; 1 cell/well, of 2400 wells): 91.2%
% positive wells (CRL-8018 hybridoma cells [1]; 10 cells/well, of 2400 wells): 23.5%
% positive wells (CRL-8018 hybridoma cells [1]; 100 cells/well, of 2400 wells): 12.4%
% positive wells (CRL-8018 hybridoma cells [1]; 1,000 cells/well, of 960 wells): 0.6%
mIgG positive wells (CRL-8018 hybridoma cells [1]; plating density 1 cell/well): 2188
mIgG positive wells (CRL-8018 hybridoma cells [1]; plating density 10 cells/well): 564
mIgG positive wells (CRL-8018 hybridoma cells [1]; plating density 100 cells/well): 298
mIgG positive wells (CRL-8018 hybridoma cells [1]; plating density 1,000 cells/well): 6
First round of FACS, FITC MFI (CRL-8018 hybridoma cells [2]; 2 × 10^6 cells, single cell encapsulation): 320.65
First round of FACS, % positive events detected (CRL-8018 hybridoma cells [2]; 2 × 10^6 cells, single cell encapsulation, 1 cell per GMD): 0.15%
First round of FACS, FITC MFI (CRL-8018 hybridoma cells [2]; 25 × 10^6 cells, multiple cell encapsulation): 17.93
First round of FACS, % positive events detected (CRL-8018 hybridoma cells [2]; 25 × 10^6 cells, multiple cell encapsulation, 2.5 cells per GMD): 0.09%
Sequential second round of FACS of single occupied GMDs, % positive events detected (CRL-8018 hybridoma cells [2]; [3]): 36.4%
Sequential second round of FACS of single occupied GMDs, FITC MFI (CRL-8018 hybridoma cells [2]; [3]): 11.3
Sorted GMDs % pos (CRL-8018 hybridoma cells [2]; [4]): 2.9%
Sorted GMDs MFI (CRL-8018 hybridoma cells [2]; [4]): 75.2
